Laboratory results taken from patent US11517630B2, “Methods and compositions for regulating gene expression” (Children's Medical Center Corporation, priority 2005, dated 2022).

What was measured:
[1] = test system: mutant (TGA-containing) Apo CII-luc fusion reporter in FG293 cells; experiment: In vitro luciferase assay: suppression of translational termination in FG293 cells transduced with mutant Apo CII-luc lentiviral vector; assay type: cell-based, human; conditions: for fold of induction: 5 μg/ml; for % of wild-type luc activity: 200 μg/ml; for ability to induce luciferase expression (suppression of translation termination codons): 0 to 1000 μg/ml, mutant luc fusion
Description: FG 293 cells were infected with viral supernatants at a multiplicity of infection (MOI) of 10. After 72 hours, cells were then split into six well plates, exposed to various concentrations of G1418 for 48 hours, and lysed. Protein extracts were then assayed for luciferase expression using the Promega Luciferase Assay System.
(§1) To facilitate quantitative measurement of both spontaneous read-through of specific termination codon configurations and the ability of specific antibiotics to suppress translational termination, a luciferase (luc) reporter gene was generated in which the first five codons of either WT mutant MIA-containing) Apo CII sequences were fused to luc coding sequences, and the resulting sequences were introduced into a standard lentiviral vector (FIG. 1B). High-titer virus generated from the vectors was used to infect human FG293 cells at a multiplicity of infection (MOI) of 10, so that virtually 100% of the cells would be stably transduced. Cells were then split into six well plates, exposed to varying concentrations of the aminoglycoside (G418) for 48 hours, and then lysed and assayed for luc expression. […] In contrast, cells transduced by vectors encoding the mutant Apo CII-luc expressed only low levels of luc in the absence of G418 (approximately 1.2% the activity of the wild type), but could be induced to strongly express luc by the addition of the antibiotic (FIG. 2B). […] The efficiency of suppression of translational termination was extremely high (over 70% of the level of wild-type reporter expression observed in the absence of the nonsense codon).
as §1, with “(TGA-containing)” for “MIA-containing)”
One of the expected characteristics of the gene regulation system described here is the ability to rapidly achieve induction of transgene expression, since (as indicated above) transcription is constitutive and therefore induction of gene expression should depend only upon the restoration of fall translation of the transgene coding sequences. To address this issue, we employed the transduced cells described above, and measured the level of reporter activity after G418 administration (200 μg/ml) as a function of time.
Compounds were tested in vitro using stable cell lines generated via the infection of FG293 cells with lentiviral vectors carrying either WT or mutant Apo CII luc sequences. The aminoglycosides were tested over a concentration range from 0 to 1000 μg/ml.

[2] = Acute toxicity at concentrations used to regulate gene expression in cell lines and animals
Source text: Overall, the system described here represents a remarkably simple means of controlling the expression of genes in mammalian cells that should have immediate experimental applications. While the range of inducibility obtainable with the system (in some cases over 60 fold) is considerably more limited than that of gone regulation systems based on the control of transcription or RNA self-cleavage, the ability to fine-tune the basal and induced levels of gene expression via use of specific termination codons and adjacent sequences may mitigate this limitation in many experimental situations. […] Similarly, others have shown that G418 can be used at relatively non-toxic doses to suppress nonsense mutations in cell lines and in animal models of inherited disease (25, 35). […] The availability of such molecules for experimental studies in the future should further expand the utility of translation-based gene regulation strategies.

[3] = test system: mutant Apo CII-luc in murine lung tissue; experiment: In vivo luc induction in murine lung after intratracheal delivery of lentiviral vector, bioluminescent imaging; conditions: 1.5 mg daily, 4 days, average of five mice
Description: For intratracheal infections, nude mice were anaesthesized and then 100 μl of concentrated virus was delivered upon normal inhalation via a blunt-ended 16-gauge needle inserted in such a way to depress the tongue.
(§2) Prior to imaging, mice were anaesthesized and injected with 150 μl luciferin (30 mg/ml) (Xenagen, Alameda, Calif.). A series of bioluminescent images were then taken for up to 30 minutes using the Xenogen IVIS imager. Photon output was quantified at the plateau of the time-course using the Living Image software. Induction in fold was calculated based on the photon output in the animals before and after drug treatment.
To further establish the general applicability of the gene […] system, we next asked whether gene regulation at the level of translation could be readily accomplished in the in vivo setting. In a first animal model, intratracheal delivery (see Materials and Methods) of a lentiviral vector carrying WT or mutant Apo CII-luc sequences was utilized in order to assess the ability to regulate luc expression in murine lung tissue via aminoglycoside administration. Five days post transduction, prior to administration of aminoglycoside, mice were imaged for luc expression using the Xenogen IVIS non-invasive bioluminescent imager (29). […]

[4] = test system: mutant Apo CII-luc in hematopoietic cells; experiment: In vivo luc induction in murine bone marrow transplantation model (transduced hematopoietic stem cells); parameters: species or system mice; conditions: 1.5 mg/day for 3.5 days, four mutant luc animals
Description: Purified HSC were obtained by isolating bone marrow SP cells using fluorescence activated cell sorting after Hoechst staining as previously described (10), with some modifications. Briefly, femurs and tibias from mice were homogenized, and the bone marrow cells were filtered through 70 μm nylon mesh and washed in PBS containing 2% FCS and 0.5% Sodium Azide. Cells were then resuspended in HBSS containing 2% FCS, 10 mM Hepes buffer and antibiotics (all from Gibco, Grand Island, N.Y.) and 8.8 μg/ml Hoechst 33342 (Molecular Probes, Eugene, Oreg.) at a cell concentration of 5×10^6/ml. Following incubation for 90 min at 37° C., cells were washed once and further purified by using a gradient of Ficoll-Paque™ Plus (Amersham Biosciences AB, Uppsala) to remove red blood cells. Purified marrow cells were then sorted using a MoFlo high speed cell sorter (DakoCytomation, Fort Collins, Col.). Except when specified, cells were kept on ice during the entire procedure. […]
as §2, with “A series of bioluminescent images were then taken for up to 30 minutes using the Xenogen IVIS imager.” left out, “treatment. […]” for “treatment.”

[5] = mice; cited from earlier work

Compound: CC(C)(C)c1ccc(OCC(=O)Nc2cccc(C(=O)O)c2)cc1 [3-[2-(4-tert-butyl-phenoxyl)-acetylamino]-benzoic acid]
- fold of induction ([1]; FG293 cells): about 14%

Compound: CCC(C)(C)c1ccc(OCC(=O)Nc2cccc(C(=O)O)c2)cc1 [3-{2-[4-(1,1-dimethyl-propyl)-phenoxyl]acetylamino}-benzoic acid]
- fold of induction ([1]; FG293 cells): about 24%

Compound: CN[C@@H]1[C@@H](O)[C@@H](O[C@@H]2[C@@H](O)[C@H](O[C@H]3O[C@H]([C@@H](C)O)[C@@H](O)[C@H](O)[C@H]3N)[C@@H](N)C[C@H]2N)OC[C@]1(C)O [G418]
- acute toxicity at concentrations used [2]: not acutely toxic
- luciferase expression, % of level in WT luc mice [3]: 27%
- induced level, % of expression in WT luc mice [4]: ~51%
- fold induction at 1.5 mg ([4]; Mus musculus, Hematopoietic stem cell, 84 h, read-out: average fold induction of luc expression): 65
- % of wild-type luc activity ([1]; 1 hour post induction): 1.4%
- % of wild-type luc activity ([1]; 6 hours post induction): 6.1%
- % of wild-type luc activity ([1]; 12 hours post induction): 25.3%
- % of wild-type luc activity ([1]; 24 hours post induction): 38.1%
- % of wild-type luc activity ([1]; 48 hours post exposure): 51.3%
- efficiency of suppression of translational termination, % of wild-type reporter expression ([1]; 300 μg/ml, 48 hours, FG293 cells): over 70%
- increase in reporter (luc) expression relative to the uninduced state, maximum induction ([1]; 300 μg/ml, 48 hours, FG293 cells, mutant Apo CII-luc): approximately 60 fold
- fold induction at 200 µg/mL ([1]; Homo sapiens, 48 h, read-out: fold induction of luc (maximal induction)): 60

Compound: NCC[C@H](O)C(=O)N[C@@H]1C[C@H](N)[C@@H](O[C@H]2O[C@H](CN)[C@@H](O)[C@H](O)[C@H]2O)[C@H](O)[C@H]1O[C@H]1O[C@H](CO)[C@@H](O)[C@H](N)[C@H]1O [amakacin]
- ability to induce luciferase expression (suppression of translation termination codons) ([1]; 48 hours, FG293 cells): only weak induction

Compound: NC[C@@H]1O[C@H](O[C@H]2[C@@H](O)[C@H](O[C@@H]3[C@@H](O)[C@H](N)C[C@H](N)[C@H]3O[C@H]3O[C@H](CO)[C@@H](O)[C@H](O)[C@H]3N)O[C@@H]2CO)[C@H](N)[C@@H](O)[C@@H]1O [paromomycin]
- ability to induce luciferase expression (suppression of translation termination codons) ([1]; 48 hours, FG293 cells): only weak induction

Compound: NC[C@H]1O[C@H](O[C@H]2[C@H](O)[C@@H](O[C@H]3O[C@H](CO)[C@@H](O)[C@H](N)[C@H]3O)[C@H](N)C[C@@H]2N)[C@H](N)C[C@@H]1O [tobramycin]
- ability to induce luciferase expression (suppression of translation termination codons) ([1]; 48 hours, FG293 cells): only weak induction

Compound: gentamicin
- ability to induce luciferase expression (suppression of translation termination codons) ([1]; 48 hours, FG293 cells): only weak induction

Compound: gentamycin sulfate
- effective dosage [5]: 17 mg/kg
